# Article PMC6238539, “Discovery of a cofactor-independent inhibitor of Mycobacterium tuberculosis InhA” (Life Science Alliance, 2018)
# Like-named read-outs stand apart in the source and are kept apart here.
# What was measured:
# M. tuberculosis Erdman [1] = format: in vivo, Mycobacterium tuberculosis; settings: 100 mg/kg
# M. tuberculosis H37Rv [2] = assay: Kill kinetics under replicating conditions; format: cell-based, Mycobacterium tuberculosis
# [3] = tested on: M. tuberculosis Erdman TMCC 107; assay: microbe, parasite or virus in culture; format: cell-based; settings: Mycobacterium tuberculosis, read-out: potency (MIC) against M. tuberculosis Erdman TMCC 107
# [4] = tested on: intracellular M. tuberculosis in THP-1 cells; assay: microbe, parasite or virus in culture; format: cell-based; settings: Mycobacterium tuberculosis
# M. tuberculosis InhA [5] = molecular target: T1, M. tuberculosis InhA (Mycobacterium tuberculosis, UniProt P9WGR1); assay: InhA in vitro inhibition assay; format: biochemical
# [6] = mouse plasma
# [7] = for Ratio Plasma AUC0-last / Dose / Ratio Plasma Cmax/Dose: C57Bl/6 mice
# in vitro [8] = format: cell-based; settings: human; read-out: HepG2 cytotoxicity IC50
# Method: HepG2 human liver cells (ATCC HB 8065) were propagated in DMEM containing either 25 mM glucose or 10 mM galactose plus 10% vol/vol FBS, 1 mM sodium pyruvate, 2 mM Corning glutagro, 100 U/ml penicillin, and 100 μg/ml streptomycin. The cells were seeded in 384-well plates at 1,800 cells per well and incubated in a humidified incubator at 37°C, 5% CO2. Compounds were solubilized in DMSO and assayed using a 10-point threefold serial dilution. Compounds were added 24 h post cell seeding to a final assay concentration of 1% DMSO and highest compound concentration of 100 μM. The cells were incubated for 72 h and viability measured using CellTiter-Glo reagent (Promega) and reading RLU. Growth inhibition curves were fitted using the Levenberg–Marquardt algorithm. The IC50 was defined as the compound concentration that produced 50% of the inhibitory response against HepG2 cells.
# in vivo = settings: female; for AUC(0-t): AUClast
# in vitro [9] = settings: human
# M. tuberculosis H37Rv [10] = assay: microbe, parasite or virus in culture; format: cell-based, Mycobacterium tuberculosis; settings: Mycobacterium tuberculosis, H37RV; whole-cell M. tuberculosis
# [11] = human serum
# M. tuberculosis InhA [12] = molecular target: T1, M. tuberculosis InhA; assay: biochemical; format: binding
# M. tuberculosis Erdman [13] = format: in vivo, Mycobacterium tuberculosis; settings: for reduction in M. tuberculosis lung burdens / reduction in M. tuberculosis spleen burdens: 9-d treatment; for Mean ± SEM Log10 CFU: dose escalation study (Table S4), day 22
# [14] = BALB/c, mouse, po, 10 mg/kg, BALB/c (infected) mice, oral 10 mg/kg QD-3 wk, plasma
# [15] = BALB/c, mouse, po, 50 mg/kg, BALB/c (infected) mice, oral 50 mg/kg QD-3 wk, plasma
# [16] = C57BL/6, mouse, po, 10 mg/kg, C57Bl/6 mice, oral 10 mg/kg QD-4 days, plasma
# [17] = C57BL/6, mouse, po, 10 mg/kg, C57Bl/6 mice, oral 10 mg/kg QD-4 days, lung
# [18] = C57BL/6, mouse, po, 25 mg/kg, C57Bl/6 mice, oral 25 mg/kg QD-4 days, plasma
# [19] = C57BL/6, mouse, po, 25 mg/kg, C57Bl/6 mice, oral 25 mg/kg QD-4 days, lung
# [20] = C57BL/6, mouse, po, 50 mg/kg, C57Bl/6 mice, oral 50 mg/kg QD-4 days, plasma
# [21] = C57BL/6, mouse, po, 50 mg/kg, C57Bl/6 mice, oral 50 mg/kg QD-4 days, lung
# [22] = CD-1, mouse, iv, 5 mg/kg, CD-1 mice, IV 5 mg/kg, single dose, plasma
# [23] = CD-1, mouse, po, 10 mg/kg, CD-1 mice, oral 10 mg/kg, single dose, lung
# [24] = CD-1, mouse, po, 10 mg/kg, CD-1 mice, oral 10 mg/kg, single dose, plasma
# T1 sequence (P9WGR1 whole entry, looked up): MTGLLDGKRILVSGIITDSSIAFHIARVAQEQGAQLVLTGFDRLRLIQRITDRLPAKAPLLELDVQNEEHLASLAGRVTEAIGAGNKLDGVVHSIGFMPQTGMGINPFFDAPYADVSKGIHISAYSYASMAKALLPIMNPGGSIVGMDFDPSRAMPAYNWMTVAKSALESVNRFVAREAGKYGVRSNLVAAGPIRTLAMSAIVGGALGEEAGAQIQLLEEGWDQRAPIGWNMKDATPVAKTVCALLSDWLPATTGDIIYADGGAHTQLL
smiles,measurement,setting,value
CCS(=O)(=O)N1N=Cc2ccc(Oc3ccc(C(F)(F)F)cc3/C=N/O)cc2B1O [AN12855],reduction in lung burdens,M. tuberculosis Erdman [1]; 2 weeks of treatment,0.47 log10 CFU
same,reduction in lung burdens,M. tuberculosis Erdman [1]; 4 weeks of treatment,0.81 log10 CFU
same,reduction in lung burdens,M. tuberculosis Erdman [1]; 8 weeks of treatment,1.73 log10 CFU
same,reduction in spleens,M. tuberculosis Erdman [1]; 8 weeks of treatment,more than three log10 reductions
same,bactericidal activity,M. tuberculosis H37Rv [2],concentration-dependent bactericidal activity
same,time to reach the limit of detection,"M. tuberculosis H37Rv [2]; replicating conditions, 10× the IC90",7 days
same,MIC,[3]; with 4% human serum albumin,2.3 µM
same,MIC,[3]; without human serum albumin,0.28 µM
same,IC50,[4],21 ± 3 nM
same,IC90,[4],40 ± 10 nM
same,IC50,M. tuberculosis InhA [5],30 nM
same,protein bound,[6],98.5%
same,Ratio Plasma AUC0-last / Dose,[7]; oral 10 mg/kg QD-4 days,1.8
same,Ratio Plasma Cmax/Dose,[7]; oral 10 mg/kg QD-4 days,0.58
same,Ratio Plasma AUC0-last / Dose,[7]; oral 25 mg/kg QD-4 days,1.9
same,Ratio Plasma Cmax/Dose,[7]; oral 25 mg/kg QD-4 days,0.5
same,Ratio Plasma AUC0-last / Dose,[7]; oral 50 mg/kg QD-4 days,1.6
same,Ratio Plasma Cmax/Dose,[7]; oral 50 mg/kg QD-4 days,0.3
same,total lung exposure lower than plasma AUC,"[7]; CD-1 mice, oral 10 mg/kg",33%
same,IC50,in vitro [8],> 100000 nM
same,AUC(0-inf),"in vivo; BALB/c, mouse, po, 10 mg/kg",29000 ng·h/mL
same,half-life,"in vivo; BALB/c, mouse, po, 10 mg/kg",3.04 h
same,AUC(0-t),in vivo; [14],28900 ng·h/mL
same,Cmax,in vivo; [14],8360 ng/mL
same,Tmax,in vivo; [14],0.5 h
same,AUC(0-inf),"in vivo; BALB/c, mouse, po, 50 mg/kg",192000 ng·h/mL
same,half-life,"in vivo; BALB/c, mouse, po, 50 mg/kg",2.4 h
same,AUC(0-t),in vivo; [15],192000 ng·h/mL
same,Cmax,in vivo; [15],61600 ng/mL
same,Tmax,in vivo; [15],0.5 h
same,AUC(0-inf),"in vivo; C57BL/6, mouse, po, 10 mg/kg",19700 ng·h/mL
same,half-life,"in vivo; C57BL/6, mouse, po, 10 mg/kg",2.5 h
same,AUC(0-t),in vivo; [16],17600 ng·h/mL
same,Cmax,in vivo; [17],584 ng/mL
same,Cmax,in vivo; [16],5790 ng/mL
same,Kp,"in vivo; C57BL/6, mouse, po, 10 mg/kg, Ratio (Lung / Plasma) @ 5 hr, C57Bl/6 mice, oral 10 mg/kg QD-4 days",0.39
same,Kp,"in vivo; C57BL/6, mouse, po, 10 mg/kg, Ratio (Lung / Plasma) @ 8 hr, C57Bl/6 mice, oral 10 mg/kg QD-4 days",0.51
same,Tmax,in vivo; [17],5 h
same,Tmax,in vivo; [16],0.5 h
same,AUC(0-inf),"in vivo; C57BL/6, mouse, po, 25 mg/kg",59000 ng·h/mL
same,half-life,"in vivo; C57BL/6, mouse, po, 25 mg/kg",3.52 h
same,AUC(0-t),in vivo; [18],46800 ng·h/mL
same,Cmax,in vivo; [19],1900 ng/mL
same,Cmax,in vivo; [18],12600 ng/mL
same,Kp,"in vivo; C57BL/6, mouse, po, 25 mg/kg, Ratio (Lung / Plasma) @ 5 hr, C57Bl/6 mice, oral 25 mg/kg QD-4 days",0.48
same,Kp,"in vivo; C57BL/6, mouse, po, 25 mg/kg, Ratio (Lung / Plasma) @ 8 hr, C57Bl/6 mice, oral 25 mg/kg QD-4 days",0.49
same,Tmax,in vivo; [19],5 h
same,Tmax,in vivo; [18],0.5 h
same,AUC(0-inf),"in vivo; C57BL/6, mouse, po, 50 mg/kg",109000 ng·h/mL
same,half-life,"in vivo; C57BL/6, mouse, po, 50 mg/kg",3.76 h
same,AUC(0-t),in vivo; [20],82400 ng·h/mL
same,Cmax,in vivo; [21],3500 ng/mL
same,Cmax,in vivo; [20],14900 ng/mL
same,Kp,"in vivo; C57BL/6, mouse, po, 50 mg/kg, Ratio (Lung / Plasma) @ 5 hr, C57Bl/6 mice, oral 50 mg/kg QD-4 days",0.36
same,Kp,"in vivo; C57BL/6, mouse, po, 50 mg/kg, Ratio (Lung / Plasma) @ 8 hr, C57Bl/6 mice, oral 50 mg/kg QD-4 days",0.47
same,Tmax,in vivo; [21],5 h
same,Tmax,in vivo; [20],0.5 h
same,half-life,"in vivo; CD-1, mouse",3.5 h
same,AUC(0-inf),"in vivo; CD-1, mouse, iv, 5 mg/kg",14400 ng·h/mL
same,MRT inf,"in vivo; CD-1, mouse, iv, 5 mg/kg",3.64 h
same,Vd,"in vivo; CD-1, mouse, iv, 5 mg/kg",1.27 L/kg
same,clearance,"in vivo; CD-1, mouse, iv, 5 mg/kg",5.8 mL/min/kg
same,half-life,"in vivo; CD-1, mouse, iv, 5 mg/kg",3.46 h
same,AUC(0-t),in vivo; [22],14300 ng·h/mL
same,Cmax,in vivo; [22],6320 ng/mL
same,AUC(0-inf),"in vivo; CD-1, mouse, po, 10 mg/kg",15500 ng·h/mL
same,bioavailability,"in vivo; CD-1, mouse, po, 10 mg/kg",53%
same,half-life,"in vivo; CD-1, mouse, po, 10 mg/kg",3.27 h
same,AUC(0-t),in vivo; [23],10400 ng·h/mL
same,AUC(0-t),in vivo; [24],15400 ng·h/mL
same,Cmax,in vivo; [23],1020 ng/mL
same,Cmax,in vivo; [24],1740 ng/mL
same,Tmax,in vivo; [23],4 h
same,Tmax,in vivo; [24],0.5 h
same,IC50,in vitro [9],> 50000 nM
same,IC90,M. tuberculosis H37Rv [10],90 ± 50 nM
same,protein bound,[11],88%
same,Kd,M. tuberculosis InhA [12]; cofactor: None,77 nM
same,N (stoichiometry of binding),M. tuberculosis InhA [12]; cofactor: None,0.58 ± 0.014
same,∆H,M. tuberculosis InhA [12]; cofactor: None,"−17,740 ± 607 cal/mol"
same,∆S,M. tuberculosis InhA [12]; cofactor: None,−27 cal/mol/deg
same,binding to InhA,M. tuberculosis InhA [12]; in the presence of NADH,unable to bind
same,reduction in M. tuberculosis lung burdens,M. tuberculosis Erdman [13]; 10 mg/kg,2.3 log10
same,reduction in M. tuberculosis spleen burdens,M. tuberculosis Erdman [13]; 10 mg/kg,2.1 log10
same,reduction in M. tuberculosis lung burdens,M. tuberculosis Erdman [13]; 25 mg/kg,2.7 log10
same,reduction in M. tuberculosis spleen burdens,M. tuberculosis Erdman [13]; 25 mg/kg,3.2 log10
same,reduction in M. tuberculosis lung burdens,M. tuberculosis Erdman [13]; 50 mg/kg,3.7 log10
same,reduction in M. tuberculosis spleen burdens,M. tuberculosis Erdman [13]; 50 mg/kg,3.6 log10
same,Mean ± SEM Log10 CFU,"M. tuberculosis Erdman [13]; lung, 50 mg/kg",5.8 ± 0.05 Log10 CFU
same,Mean ± SEM Log10 CFU,"M. tuberculosis Erdman [13]; lung, 100 mg/kg",5.0 ± 0.13 Log10 CFU
same,Mean ± SEM Log10 CFU,"M. tuberculosis Erdman [13]; lung, 200 mg/kg",5.6 ± 0.06 Log10 CFU
same,Mean ± SEM Log10 CFU,"M. tuberculosis Erdman [13]; organ Lung, 50 mg/kg",2.5 ± 0.24 Log10 CFU
same,Mean ± SEM Log10 CFU,"M. tuberculosis Erdman [13]; organ Lung, 100 mg/kg",2.5 ± 0.05 Log10 CFU
same,Mean ± SEM Log10 CFU,"M. tuberculosis Erdman [13]; organ Lung, 200 mg/kg",3.0 ± 0.10 Log10 CFU
